Data on nine molecules can be found in paper PMC12484987 (Scientific Reports, 2025).

For orientation: IC50 means the point on the concentration scale where inhibition reaches its midpoint.

In one series the target is HIV-1 RT (Human immunodeficiency virus type 1 group M subtype B, UniProt P04585). The following applies: cited from earlier work.
For series [1], the system named is A549 (Lung carcinoma). The series is described as follows: cells. Particulars: Homo sapiens, A549, 48 h, read-out: IC50 cytotoxic activity.
The subject of series [2] is HL-60 (promyeloblast). The following applies: for Selectivity index SI = IC50(normal cell)/IC50(cancer cell line): MRC-5 vs HL-60.
The next series can be described thus: in vitro. Particulars: human, MRC-5 cells (normal embryonic lung cells).
Series [3] concerns HeLa (Cervical carcinoma). The following applies: for Selectivity index SI = IC50(normal cell)/IC50(cancer cell line): MRC-5 vs HeLa.
In series [4] the test system is S102 (Thai liver cancer). The series is described as follows: cells. The following applies: Homo sapiens, 48 h, read-out: IC50 cytotoxic activity.
The test system of series [5] is HL-60 (promyeloblast). The series is described as follows: cells. The following applies: Homo sapiens, HL-60, 48 h, read-out: IC50 cytotoxic activity.
Series [6] concerns MOLT-3 (Acute lymphoblastic leukemia). The series is described as follows: cells. The following applies: Homo sapiens, MOLT-3, 48 h, read-out: IC50 cytotoxic activity.
In series [7] the test system is T47-D (Hormone-dependent breast cancer). The series is described as follows: cells. The following applies: Homo sapiens, T47D, 48 h, read-out: IC50 cytotoxic activity.
For series [8], the system named is HepG2 (Hepatocarcinoma). The following applies: for Selectivity index SI = IC50(normal cell)/IC50(cancer cell line): MRC-5 vs HepG2.
The test system of series [9] is MOLT-3 (Acute lymphoblastic leukemia). Particulars: for Selectivity index SI = IC50(normal cell)/IC50(cancer cell line): MRC-5 vs MOLT-3.
In series [10] the test system is HepG2 (Hepatocarcinoma). The series is described as follows: cells. Particulars: Homo sapiens, HepG2, 48 h, read-out: IC50 cytotoxic activity.
In series [11] the test system is H69AR (Lung cancer, multidrug resistance). Particulars: for Selectivity index SI = IC50(normal cell)/IC50(cancer cell line): MRC-5 vs H69AR.
The subject of series [12] is HuCCA-1 (Cholangiocarcinoma). The series is described as follows: cells. Particulars: Homo sapiens, HuCC-A1, 48 h, read-out: IC50 cytotoxic activity.
Series [13] has as its system MDA-MB-231 (Hormone-independent breast cancer). The series is described as follows: cells. Particulars: Homo sapiens, MDA-MB-231, 48 h, read-out: IC50 cytotoxic activity.
Series [14] has as its system S102 (Thai liver cancer). Particulars: for Selectivity index SI = IC50(normal cell)/IC50(cancer cell line): MRC-5 vs S102.
Series [15] has as its system T47-D (Hormone-dependent breast cancer). The following applies: for Selectivity index SI = IC50(normal cell)/IC50(cancer cell line): MRC-5 vs T47-D.
Series [16] relates to H69AR (Lung cancer, multidrug resistance). The series is described as follows: cells. Particulars: Homo sapiens, 48 h, read-out: IC50 cytotoxic activity.
The test system of series [17] is MDA-MB-231 (Hormone-independent breast cancer). Particulars: for Selectivity index SI = IC50(normal cell)/IC50(cancer cell line): MRC-5 vs MDA-MB-231.
Series [18] deals with HeLa (Cervical carcinoma). The series is described as follows: cells. Particulars: Homo sapiens, 48 h, read-out: IC50 cytotoxic activity.
Series [19] concerns HuCCA-1 (Cholangiocarcinoma). The following applies: for Selectivity index SI = IC50(normal cell)/IC50(cancer cell line): MRC-5 vs HuCCA-1.
For series [20], the system named is A549 (Lung carcinoma). The following applies: for Selectivity index SI = IC50(normal cell)/IC50(cancer cell line): MRC-5 vs A549.
Series [21] deals with MRC-5 (normal embryonic lung cell). The following applies: for Percentage cytotoxicity: MRC-5, at maximum tested concentration of 50 µg/mL; for toxicity toward normal embryonic lung cells (MRC-5), in words: MRC-5, up to 50 µg/mL.

Several values for one entry are separate records, joined by “and”; a condition that tells them apart may be missing. Equal values may be shown once. Read-outs that look alike come from different tables or passages of the source. Where only a bound is given, the exact number is not on record here.

As for `Cc1cc(C#N)cc(C)c1Oc1cc(Nc2ccc(C#N)cn2)nc2ccccc12` [4-(2’,6’-dimethyl-4’-cyanophenoxy)−2-(5’’-cyanopyridin-2’’ylamino)quinoline], the “percentage inhibition against HIV-1 RT” value at HIV-1 RT (quinolines of the previous publication) was 45% and 45.1%. In addition, at HIV-1 RT (read-out: IC50 against HIV-1 RT, quinolines of the previous publication), the IC50 was 1.22 µM.
Regarding `N#Cc1ccc(Nc2cc(Oc3ccc(C#N)cc3)c3ccccc3n2)cc1` [4-(4’-cyanophenoxy)−2-(4’’-cyanophenyl)-aminoquinoline], at HIV-1 RT (previous study), the “percentage inhibition against HIV-1 RT” value is recorded as 39.71%.
Turning to `Cc1cc(C=O)cc(C)c1Oc1cc(Oc2c(C)cc(C=O)cc2C)c2cnccc2n1` [Compound 13a, 2,4-di-(2ˊ,6ˊ-dimethyl-4ˊ-formylphenoxy)−1,6-naphthyridine], the half-inhibitory concentration (IC50) in the series on A549 (Lung carcinoma) [1] stood at 107 ± 2.6 µM; in the series with S102 (Thai liver cancer) [4], 69.8 ± 2.8 µM; in the series on HL-60 (promyeloblast) [5] it was 17.1 ± 2.4 µM; in [6], 11.3 ± 2.7 µM; in series [7] it was 35.9 ± 2.1 µM; with HepG2 (Hepatocarcinoma) [10] it was 60.7 ± 1 µM. In addition, the IC50 was found to be 42.2 ± 2.6 µM in series [12], 56.3 ± 3.7 µM in series [13], 91.8 ± 2.9 µM in series [16] and 24.1 ± 0.4 µM in [18]. The “Selectivity index SI = IC50(normal cell)/IC50(cancer cell line)” value with HL-60 (promyeloblast) [2] came out at 3.98; in [3] it was 2.83; in the series on HepG2 (Hepatocarcinoma) [8], 1.12; in series [9] it was 6.03; in [11], 0.74; in the series on S102 (Thai liver cancer) [14], 0.98. Further, the “Selectivity index SI = IC50(normal cell)/IC50(cancer cell line)” value in series [15] came out at 1.90; in series [17], 1.21; in series [19] it was 1.61; in the series with A549 (Lung carcinoma) [20] it was 0.64. The same molecule displayed an IC50 at 48 h in “in vitro” of 68.1 ± 1.1 µM.
`Cc1cc(C#N)cc(C)c1Oc1cc(Oc2c(C)cc(C#N)cc2C)c2cnccc2n1` [Compound 13b, 2,4-di-(2ˊ,6ˊ-dimethyl-4ˊ-cyanophenoxy)−1,6-naphthyridine]: the IC50 with A549 (Lung carcinoma) [1] came out at 36.1 ± 0.6 µM; in the series on S102 (Thai liver cancer) [4], 103 ± 4.4 µM; in the series with HL-60 (promyeloblast) [5], 81.5 ± 19.5 µM; in series [6], 11.3 ± 2.2 µM; in series [7], 34.1 ± 2.2 µM; with HepG2 (Hepatocarcinoma) [10], 74.7 ± 13.3 µM. Moreover, the IC50 came out at 32.4 ± 2.7 µM in series [12], 73.2 ± 8.1 µM in [13], 76 ± 6.54 µM in series [16] and 24.4 ± 2.5 µM in series [18]. Moreover, the Percentage cytotoxicity in series [21] was 43%. Moreover, the “toxicity toward normal embryonic lung cells (MRC-5), in words” value in series [21] is “non-toxic”. Also, the “Selectivity index SI = IC50(normal cell)/IC50(cancer cell line)” value in the series on HL-60 (promyeloblast) [2] is reported as above 1.46; in series [3] it was above 4.87; in the series with HepG2 (Hepatocarcinoma) [8], above 1.59; in series [9] it was above 10.52; in series [11], above 1.56; in the series on S102 (Thai liver cancer) [14] it was above 1.15. The “Selectivity index SI = IC50(normal cell)/IC50(cancer cell line)” value in series [15] is on record as above 3.49; in series [17] it was above 1.62; in series [19] it was above 3.67; in the series with A549 (Lung carcinoma) [20], above 3.29. The IC50 at 48 h in “in vitro” was above 119 µM.
With `Cc1cc(C=O)cc(C)c1Oc1cc(Oc2c(C)cc(C=O)cc2C)c2ccncc2n1` [Compound 14a, 2,4-di-(2ˊ,6ˊ-dimethyl-4ˊ-formylphenoxy)−1,7-naphthyridine], the concentration for half-maximal inhibition (IC50) in the series with A549 (Lung carcinoma) [1] amounted to 60.8 ± 1 µM; in the series with S102 (Thai liver cancer) [4] it was 67.6 ± 2.2 µM; with HL-60 (promyeloblast) [5] it was 10.4 ± 0.8 µM; in series [6], 9.6 ± 1.1 µM; in [7] it was 26.1 ± 5 µM; in the series with HepG2 (Hepatocarcinoma) [10], 53.9 ± 3.4 µM. In addition, the IC50 in series [12] worked out at 21.7 ± 1.6 µM; in [13] it was 49.4 ± 6.7 µM; in series [16], 52.2 ± 1.6 µM; in series [18], 12.2 ± 0.7 µM. Also, the “Selectivity index SI = IC50(normal cell)/IC50(cancer cell line)” value came to 6.28 in the series with HL-60 (promyeloblast) [2]; 5.35 in series [3]; 1.21 in the series on HepG2 (Hepatocarcinoma) [8]; 6.80 in series [9]; 1.25 in series [11]; 0.97 with S102 (Thai liver cancer) [14]. In addition, the “Selectivity index SI = IC50(normal cell)/IC50(cancer cell line)” value in series [15] is reported as 2.50; in series [17], 1.32; in [19], 3.01; in the series with A549 (Lung carcinoma) [20], 1.07. Also, the IC50 at 48 h in “in vitro” stood at 65.3 ± 2.1 µM.
In the case of `Cc1cc(C#N)cc(C)c1Oc1cc(Oc2c(C)cc(C#N)cc2C)c2ccncc2n1` [Compound 14b, 2,4-di-(2ˊ,6ˊ-dimethyl-4ˊ-cyanophenoxy)−1,7-naphthyridine], the half-maximal inhibitory concentration (IC50) (with A549 (Lung carcinoma) [1]; in the series on S102 (Thai liver cancer) [4]; in the series on HL-60 (promyeloblast) [5]; in [6]; in series [7]; with HepG2 (Hepatocarcinoma) [10]) was above 119 µM throughout. In addition, the half-maximal inhibitory concentration (IC50) in series [12], in series [13], in [16] and in [18] was above 119 µM throughout. In addition, the Percentage cytotoxicity is given as 0% in series [21]; 24% with HL-60 (promyeloblast) [2] (HL-60, at maximum tested concentration of 50 µg/mL); 24% in series [3] (HeLa, at maximum tested concentration of 50 µg/mL); 34% in the series on HepG2 (Hepatocarcinoma) [8] (HepG2, at maximum tested concentration of 50 µg/mL); 16% in series [9] (MOLT-3, at maximum tested concentration of 50 µg/mL); 0% in series [11] (H69AR, at maximum tested concentration of 50 µg/mL). Further, the Percentage cytotoxicity is 6% with S102 (Thai liver cancer) [14] (S102, at maximum tested concentration of 50 µg/mL); 0% in series [15] (T47-D, at maximum tested concentration of 50 µg/mL); 22% in series [17] (MDA-MB-231, at maximum tested concentration of 50 µg/mL); 0% in series [19] (HuCCA-1, at maximum tested concentration of 50 µg/mL); 8% in the series with A549 (Lung carcinoma) [20] (A549, at maximum tested concentration of 50 µg/mL). For the same molecule, in series [21], the “toxicity toward normal embryonic lung cells (MRC-5), in words” value is given as “non-toxic”. Besides, in “in vitro”, the IC50 at 48 h was above 119 µM.
With `O=C1Nc2ccc(Cl)cc2[C@@](C#CC2CC2)(C(F)(F)F)O1` [EFV, efavirenz, reference compound], in the series “in vitro”, the half-maximal inhibitory concentration (IC50) at 48 h amounted to 95.6 ± 6 µM.
On to `COc1cccc2c1C(=O)c1c(O)c3c(c(O)c1C2=O)C[C@@](O)(C(=O)CO)C[C@@H]3O[C@H]1C[C@H](N)[C@H](O)[C@H](C)O1` [doxorubicin, reference compound], for which the concentration for half-maximal inhibition (IC50) in the series with A549 (Lung carcinoma) [1] is 0.6 ± 0.1 µM; in the series with S102 (Thai liver cancer) [4] it was 2.2 µM; in the series on HL-60 (promyeloblast) [5], 0.1 µM; in series [6], 0.02 µM; in series [7], 1.2 µM; in the series with HepG2 (Hepatocarcinoma) [10], 0.6 ± 0.02 µM. For the same molecule, the half-inhibitory concentration (IC50) in [12] was 0.9 ± 0.1 µM; in series [13], 2.5 ± 0.1 µM; in series [18] it was 0.4 µM. In addition, the “Selectivity index SI = IC50(normal cell)/IC50(cancer cell line)” value with HL-60 (promyeloblast) [2] is on record as 31; in series [3], 7.75; in the series with HepG2 (Hepatocarcinoma) [8] it was 5.17; in series [9], 155; in series [11], 0.09; in the series on S102 (Thai liver cancer) [14], 1.41. Also, the “Selectivity index SI = IC50(normal cell)/IC50(cancer cell line)” value came out at 2.58 in [15], 1.24 in series [17], 3.44 in [19] and 5.17 with A549 (Lung carcinoma) [20]. Besides, in “in vitro”, the concentration for half-maximal inhibition (IC50) at 48 h stood at 3.1 ± 0.5 µM.
On to `COc1cc([C@@H]2c3cc4c(cc3[C@@H](O[C@@H]3O[C@@H]5CO[C@@H](C)O[C@H]5[C@H](O)[C@H]3O)[C@H]3COC(=O)[C@H]23)OCO4)cc(OC)c1O` [etoposide, reference compound], for which the IC50 in the series with HL-60 (promyeloblast) [5] came to 0.8 ± 0.1 µM; in series [6], 0.03 ± 0.02 µM.
